{
  "source": "patent US7223864B2",
  "about": "“2-hydroxyethidium, methods of preparation and uses thereof” (MCW Research Foundation, Inc., priority 2004, dated 2007)",
  "key": {"[1]": {"conditions": "literature value used in competition analysis; cited from earlier work"}, "[2]": {"system": "X/XO-catalyzed oxidation of HE (superoxide)", "assay": "Oxidation of HE by xanthine/xanthine oxidase (X/XO), fluorescence", "assay_type": "biochemical", "conditions": "for effect on increase in fluorescence due to X/XO-catalyzed oxidation of HE: HE 50 μM, DNA 250 μg mL^−1, SOD 20 μg mL^−1, catalase 1000 U mL^−1", "procedure": "(A) Incubation mixtures consisted of HE (50 μM), xanthine (1 mM), DTPA (100 μM), and XO (0.05 U mL^−1) in aerated phosphate buffer (100 mM, pH 7.4). Reaction was initiated by the addition of XO and the fluorescence spectrum recorded after 30 min. Shown for comparison is the spectrum obtained from E^+ (50 μM) obtained under identical experimental conditions. (B) Same as (A) but in the presence of DNA (250 μg mL^−1). (C) Incubations contained HE (50 μM), DTPA (100 μM) and DNA (250 μg mL^−1) and xanthine (1 mM) or XO (0.05 U mL^−1), both in the presence and absence of SOD (20 μg mL^−1). (D) Same as (B) but in the presence of catalase (1000 U mL^−1).\n(A) Incubation initially consisted of HE (50 μM), xanthine (1 mM), XO (0.025 U mL^−1) and DTPA (100 μM) in phosphate buffer (100 mM, pH 7.4). A 50 μM of DEA/NO added at the point indicated by downward arrow. After the increase in fluorescence intensity ceased, an additional bolus amount of HE was added. (B) Same as (A) except XO (0.005 U mL^−1) and DEA/NO were added at a much lower concentration (10 μM).\n(§1) Fluorescence measurements—The oxidation of HE in a superoxide generating system was performed on a Shimadzu RF-5301 PC spectrofluorometer (Shimadzu Scientific Instruments Inc., Japan). Typically, excitation was at 510 nm with a 3 or 5 nm slit width and the spectra were recorded over a wavelength region of 540–800 nm using a 10 or 20 nm slit width. The fluorescence emission spectra indicate the actual color of the product of superoxide and HE reaction, E^+ and HE."}, "[3]": {"assay": "Fluorescence measurements (fluorescence spectral characteristics)", "assay_type": "physicochemical", "conditions": "for Fluorescence color / Emission maximum (nm): /DNA labels = in the presence of DNA; for Extinction coefficient (mM^−1)*: E^+: excitation maximum 518 nm, HE/superoxide product: excitation maximum 480 nm, slit 3 nm, emission slit 20 nm; for Emission maximum (nm): phosphate buffer (100 mM, pH 7.4)", "procedure": "as §1\nSuperoxide generation was measured to be 8 μM/min."}, "[4]": {"assay": "Competition kinetic analysis of the reaction between HE and superoxide", "conditions": "tentative, competition with BMPO and Cu, Zn-SOD", "procedure": "Kinetic analysis of the reaction between HE and superoxide—The rate constant between HE and superoxide was calculated from competition experiments. At saturating concentrations of HE, superoxide will be consumed as follows:\nDismutation of superoxide was not considered in our analysis, because at saturating concentrations of HE (compared to superoxide flux), this reaction is negligible (Vásquez-Vivar, J. et al. Free Radic. Biol. Med. 31:975–985, 2001). Thus, assuming a steady-state approximation, the rate of superoxide consumption will be equal to new fluorescent product (P) formation, defined by\n[formula] where kHE is the apparent rate constant for the reaction of HE with superoxide under the experimental conditions. Therefore, the ratio between V and V0 that corresponds to the rate of new product formation in the presence and absence of scavenger, respectively, is defined by\n[formula] The values of V and V0 can be calculated from variations in fluorescence intensity of new product over time. In these experiments, 5-tert-butoxycarbonyl 5-methyl-1-pyrroline N-oxide (BMPO) and bovine Cu, Zn-SOD were used to trap or dismutate superoxide. The rate constant used for the reaction between BMPO and superoxide was 77±5 M^−1 s^−1 (Rosen, G. et al. J. Biol. Chem. 277:40275–40280, 2002) and 3×10^9 M^−1 s^−1 for Cu, Zn-SOD. […]"}, "[5]": {"system": "Bovine aortic endothelial cells", "assay": "Intracellular detection of superoxide with HE in menadione-treated cells", "assay_type": "cell-based", "conditions": "25 min menadione exposure, then 10 μM HE for 20 min; versus control cells", "procedure": "Bovine aortic endothelial cells were treated with menadione, a redox-cycling quinone known to induce cellular oxidative stress. After 25 min of exposure, cells were washed free of extracellular menadione and treated with 10 μM of HE for 20 min. Cells were washed and fluorescent images obtained in a fluorescence microscope. […] Cells were lysed and products extracted with n-butanol. After centrifugation to separate out the cell debris, the top layer of butanol was dried, dissolved in water, and HPLC/fluorescence chromatogram was obtained (FIG. 12). The intense peak eluting at 29 min corresponds to that of 2-hydroxyethidium (FIG. 12, top trace). For better separation in biological samples, a linear increase in CH3CN concentration from 10% to 70% in 46 min was used instead of a linear increase in CH3CN concentration from 10% to 40% in 30 min. The other HPLC analysis conditions were same as described above."}, "[6]": {"system": "oxidation of HE by potassium superoxide", "assay": "Oxidation of HE by potassium superoxide, fluorescence", "assay_type": "biochemical", "conditions": "SOD 20 μg mL^−1, KO2 1.1 mM", "procedure": "(A) Incubations consisted of HE (50 μM), DTPA (100 μM), and KO2 in the presence and absence of DNA (250 μg mL^−1) in phosphate buffer (100 mM, pH 7.4). Superoxide solution was prepared by adding 1 mg of KO2 in 1 mL of dry DMSO and vortexed vigorously for 10 min. The reaction was initiated by adding 40 μL of freshly prepared KO2 in DMSO to 0.46 mL of the above buffer (final concentration of KO2 was 1.1 mM). (B) Same as (A) but also containing SOD (20 μg mL^−1). The extent of oxidation of HE under these conditions is much less than that observed in X/XO.\nas §1"}, "[7]": {"target": "T1, endothelial nitric oxide synthase (eNOS) (Bos taurus, UniProt P29473)", "T1 construct": "made in house; host or cells: Escherichia coli", "assay": "Oxidation of HE by endothelial NOS, fluorescence", "assay_type": "biochemical", "conditions": "SOD 20 μg mL^−1; BH4 10 μM; Ca^2+/CaM", "procedure": "(A) Incubations consisted of NADPH (0.1 mM), DTPA (100 μM), HE (50 μM), L-arginine (0.1 mM), purified eNOS (6.25 μg mL^−1), and Ca^2+ (0.2 mM)/CaM (20 μg mL^−1) in a HEPES buffer (50 mM, pH 7.4). Spectra were obtained 30 min after the addition of eNOS to different incubation mixtures. […] (B) Time-dependent changes in fluorescence of the product formed from an incubation mixture containing NADPH (0.1 mM), HE (50 μM), DTPA (100 μM), Ca^2+ (0.2 mM)/CaM (20 μg mL^−1), and purified eNOS (6.25 μg mL^−1) in a HEPES buffer (50 mM, pH 7.4). (C) Same as (B) except in the presence of SOD (20 μg mL^−1).\nas §1"}},
  "data": [
    {"molecule": "CC(C)(C)OC(=O)C1(C)CCC=[N+]1[O-]", "note": "(centres unmarked) [BMPO, 5-tert-butoxycarbonyl 5-methyl-1-pyrroline N-oxide]", "values": [
      {"measurement": "rate constant used for the reaction with superoxide", "setting": "[1]", "result": "77 ± 5", "unit": "M⁻¹ s⁻¹"}
    ]},
    {"molecule": "CCN(CC)[N+]([O-])=NO", "note": "[DEA/NO, 2-(N,N-diethylamino)-diazenolate-2-oxide]", "values": [
      {"measurement": "effect on increase of fluorescence due to superoxide-dependent oxidation of HE by X/XO", "setting": "[2]; DEA/NO 10 μM, XO 0.005 U mL^−1", "result": "inhibited"}
    ]},
    {"molecule": "CC[n+]1c(-c2ccccc2)c2cc(N)ccc2c2ccc(N)cc21", "note": "[E^+, ethidium]", "values": [
      {"measurement": "Fluorescence color", "setting": "[3]", "result": "Red"},
      {"measurement": "Extinction coefficient (mM^−1)*", "setting": "[3]", "result": 232, "unit": "mM⁻¹"},
      {"measurement": "Emission maximum (nm)", "setting": "[3]", "result": 603, "unit": "nm"},
      {"measurement": "Emission maximum (nm)", "setting": "[3]; listed as ethidium", "result": 605, "unit": "nm"}
    ]},
    {"molecule": "CCN1c2cc(N)ccc2-c2ccc(N)cc2C1c1ccccc1", "note": "(centres unmarked) [HE, Hydroethidine (dihydroethidium)]", "values": [
      {"measurement": "rate constant between the superoxide anion and HE", "setting": "[4]", "result": "approximately 2.6±0.6×10^5 M^−1 s^−1"},
      {"measurement": "Fluorescence color", "setting": "[3]", "result": "Red"},
      {"measurement": "Extinction coefficient (mM^−1)*", "setting": "[3]", "result": 48, "unit": "mM⁻¹"},
      {"measurement": "Emission maximum (nm)", "setting": "[3]", "result": 595, "unit": "nm"}
    ]},
    {"molecule": "CC[n+]1c(-c2ccccc2)c2cc(N)ccc2c2cc(O)c(N)cc21", "note": "[HE/superoxide product, 2-hydroxyethidium]", "values": [
      {"measurement": "Fluorescence color", "setting": "[3]", "result": "Orange"},
      {"measurement": "Extinction coefficient (mM^−1)*", "setting": "[3]", "result": 285, "unit": "mM⁻¹"},
      {"measurement": "Emission maximum (nm)", "setting": "[3]", "result": 586, "unit": "nm"},
      {"measurement": "emission maximum", "setting": "[3]; purified product, in the presence of DNA (250 μg mL^−1) in phosphate buffer", "result": 567, "unit": "nm"}
    ]},
    {"molecule": "CC1=CC(=O)c2ccccc2C1=O", "note": "[menadione]", "values": [
      {"measurement": "fluorescence of cells after HE (fluorescence microscope)", "setting": "[5]", "result": "intense red fluorescence"}
    ]},
    {"molecule": "Cu, Zn-SOD: Bovine copper, zinc superoxide dismutase", "values": [
      {"measurement": "effect on increase in fluorescence due to X/XO-catalyzed oxidation of HE", "setting": "[2]", "result": "completely nullified"},
      {"measurement": "effect on formation of fluorescent product from HE and potassium superoxide", "setting": "[6]", "result": "inhibited the formation of this product"},
      {"measurement": "effect on oxidation of HE by eNOS", "setting": "[7]", "result": "inhibited the oxidation of HE"},
      {"measurement": "rate constant used for the reaction with superoxide", "setting": "[1]", "result": "3e+09", "unit": "M⁻¹ s⁻¹"}
    ]},
    {"molecule": "catalase", "values": [
      {"measurement": "effect on increase in fluorescence due to X/XO-catalyzed oxidation of HE", "setting": "[2]", "result": "increased slightly"}
    ]}
  ]
}
